Source: patent US20250213556A1, “COMBINATION THERAPY FOR TREATING CANCER” (AstraZeneca AB, priority 2022, published 2025)

Legend:
CWR22Pc-R1-AD1 cells = assay: Cell proliferation assay and combination benefit calculation, CWR22Pc-R1-AD1; type: cell-based; settings: 168 h, monotherapy, 7 days after treatment
Procedure: (§1) Cell line identification was validated using the CellCheck assay (IDEXX Bioanalytics, Westbrook, ME, USA). All cell lines were validated free of virus Mycoplasma contamination using the MycoSEQ assay (Thermo Fisher Scientific, Waltham, MA, USA) or STAT-Myco assay (IDEXX Bioanalytics). All cell lines were grown RPMI-1640 growth media (Corning 17-105-CV) supplemented with 10% fetal bovine serum (FBS) or, when indicated, 10% charcoal stripped FBS (ThermoFisher Scientific, 12676029) and 2 mM glutamine.
(§2) Cells in 384-well or 96-well plates were dosed using an Echo 555 (LabCyte, San Jose, CA, USA) or using the HP D300e Digital Dispenser (HP Life Science Dispensing), respectively.
(§3) Live cell count pre- and post-treatment (7 days after treatment) was determined using CellTiter-Glo as per manufacturer's instructions (Promega, Madison, WI, USA; G7570).
(§4) Cell viability was determined with the Sytox Green assay as described in Davies 2012 and the AC50 calculated. The HSA (Highest Single Agent) Synergy Score was calculated according to Bernenbaum 1989.

LnCAP cells = assay: Cell proliferation assay and combination benefit calculation, LnCAP; type: cell-based; settings: Homo sapiens, monotherapy
Procedure: as §1, §2, §3, §4
(§5) Using the method of example 1, these ATM-KO cell lines were determined to be sensitive to AZD5305, with an AC50 of 3 nM, in contrast to the parental (or control) LNCAP cell line which is not sensitive to AZD5305 monotherapy, with an AC50 greater than 10 μM.
(§6) The HSA (Highest Single Agent) Synergy Score was calculated according to Bernenbaum 1989 when the AZD5305 and enzalutamide were used in combination.

C901 tumours = assay: In vivo pre-clinical model C901 patient derived xenograft (PDX); settings: 21 days, NMRI Nude mice, vs vehicle
Procedure: C901 patient derived xenograft (PDX) model was engrafted subcutaneously onto the flank of donor mice and monitored once a week until ethical size (1000-2000 mm^3). When donor tumours reached ethical size, PDX fragments measuring approximately 20 mm^3 were engrafted in the study mice (male NMRI Nude mice, aged 6-9 weeks, supplied by Janvier labs).
The mice were dosed for 21 days, with the dose calculated for individual animals on day of dosing, and with a […] dosing volume.
Tumours were measured ×2 per week using digital calipers. The length and width of the tumour will be measured and volume calculated using the following formula: […]
The bodyweight of all mice in the study was measured and recorded 2 times per week; this information was used to calculate precise dosing for each animal.

VCAP cells = assay: Cell proliferation assay and combination benefit calculation, VCAP; type: cell-based; settings: Homo sapiens, 168 h, monotherapy, 7 days after treatment
Procedure: as §1, §2, §3, §4

LNCaP tumours = assay: In vivo pre-clinical model LNCaP (subcutaneous xenograft); settings: 42 days, NOD SCID mice, vs vehicle
Procedure: LNCaP cells (1×10^7 cells 1:1 in Matrigel) were implanted subcutaneously onto the flank of male NOD SCID mice (aged 5-8 weeks weighing approximately 25-30 g, supplied by Charles River) using a 23-gauge needle.
The mice were dosed for 42 days, with the dose calculated for individual animals on day of dosing, and with a […] dosing volume.
Tumours were measured ×3 per week using digital calipers. The length and width of the tumour will be measured and volume calculated using the following formula: […]
The bodyweight of all mice in the study was measured and recorded 3 times per week; this information was used to calculate precise dosing for each animal.

C4-2 cells = assay: Cell proliferation assay and combination benefit calculation, C4-2; type: cell-based; settings: 168 h, monotherapy, 7 days after treatment
Procedure: as §1, §2, §3, §4

ATM-KO LNCAP cells = assay: Cell proliferation assay and synergy in isogenic ATM-KO LNCAP cells; type: cell-based; settings: monotherapy; for AC50: Homo sapiens, LNCaP
Procedure: as §2, §3, §4
An isogenic ATM-KO model in LNCAP cells was generated with CRISPR-Cas9 technology.
as §5, §6

[1] = 168 h, LnCAP, 7 days after treatment
[2] = LnCAP parental (control), Example 2

| SMILES | AC50 (CWR22Pc-R1-AD1 cells) [µM] | AC50 (LnCAP cells; [1]) [µM] | AC50 (LnCAP cells; [2]) [µM] | TGI (C901 tumours; AZD5305 1 mg/kg QD) [%] | AC50 (VCAP cells) [µM] | tumour growth inhibition (TGI) (LNCaP tumours; AZD5305 1 mg/kg QD) | AC50 (C4-2 cells) [µM] | AC50 (ATM-KO LNCAP cells; ATM-KO cell lines (clone.1 and clone.2)) [µM] | TGI (C901 tumours; enzalutamide 60 mg/kg QD) [%] | tumour growth inhibition (TGI) (LNCaP tumours; enzalutamide 4 mg/kg QD) | AC50 (ATM-KO LNCAP cells; LnAP-ATM-KO-CL.1) [µM] | Sensitivity of the cell lines (ATM-KO LNCAP cells; the cell lines of Example 2 (LNCAP parental and ATM-KO)) |
| --- | --- | --- | --- | --- | --- | --- | --- | --- | --- | --- | --- | --- |
| CCc1cc2ncc(CN3CCN(c4ccc(C(=O)NC)nc4)CC3)cc2[nH]c1=O [AZD5305, 5-{4-[(7-ethyl-6-oxo-5,6-dihydro-1,5-naphthyridin-3-yl)methyl]piperazin-1-yl}-N-methylpyridine-2-carboxamide] | 0.0316 | 12 | > 10 | 90 | 1.6 | no or minimal (4%) | 20 | 0.003 | – | – | – | – |
| CNC(=O)c1ccc(N2C(=S)N(c3ccc(C#N)c(C(F)(F)F)c3)C(=O)C2(C)C)cc1F [Enzalutamide, 4-(3-(4-cyano-3-(trifluoromethyl)phenyl)-5,5-dimethyl-4-oxo-2-thioxoimidazolidin-1-yl)-2-fluoro-N-methylbenzamide] | 9.59 | 1.41 | > 10 | – | 2.94 | – | 8.33 | – | 92 | no or minimal (4%) | > 10 | No sensitivity could be measured |
